Results on nine compounds are retold here after patent publication US7511144B2, “Reverse hydroxamic acid derivatives” (Kaken Pharmaceutical Co., Ltd., priority 2001, dated 2009).

Format in all cases: biochemical
The target of one assay is T1, TACE (Homo sapiens, UniProt P78536).
T1 construct: made in house; host or cells: mammalian cells or insect cells
The assay can be described thus: TACE inhibition experiment (in vitro).

A further assay has as its target T2, Human MMP1 (Homo sapiens, UniProt P03956).
T2 construct: purchased Calbiochem 444208
T2 sequence (P03956 100-469): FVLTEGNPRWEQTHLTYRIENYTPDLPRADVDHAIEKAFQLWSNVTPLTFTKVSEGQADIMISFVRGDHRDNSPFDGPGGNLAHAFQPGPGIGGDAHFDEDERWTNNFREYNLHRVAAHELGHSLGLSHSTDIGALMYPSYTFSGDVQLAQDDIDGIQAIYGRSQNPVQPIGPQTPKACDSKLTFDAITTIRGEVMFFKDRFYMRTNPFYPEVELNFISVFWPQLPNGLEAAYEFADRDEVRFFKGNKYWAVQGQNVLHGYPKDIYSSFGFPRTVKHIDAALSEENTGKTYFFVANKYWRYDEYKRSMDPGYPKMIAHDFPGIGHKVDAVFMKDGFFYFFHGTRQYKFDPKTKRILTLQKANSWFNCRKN
Briefly: MMP1 inhibition experiment. The note with it: read-out: IC50 value MMP-1.

Another assay addresses T3, Human MMP2 (Homo sapiens, UniProt P08253).
T3 construct: purchased Calbiochem 444213
T3 sequence (P08253 110-660): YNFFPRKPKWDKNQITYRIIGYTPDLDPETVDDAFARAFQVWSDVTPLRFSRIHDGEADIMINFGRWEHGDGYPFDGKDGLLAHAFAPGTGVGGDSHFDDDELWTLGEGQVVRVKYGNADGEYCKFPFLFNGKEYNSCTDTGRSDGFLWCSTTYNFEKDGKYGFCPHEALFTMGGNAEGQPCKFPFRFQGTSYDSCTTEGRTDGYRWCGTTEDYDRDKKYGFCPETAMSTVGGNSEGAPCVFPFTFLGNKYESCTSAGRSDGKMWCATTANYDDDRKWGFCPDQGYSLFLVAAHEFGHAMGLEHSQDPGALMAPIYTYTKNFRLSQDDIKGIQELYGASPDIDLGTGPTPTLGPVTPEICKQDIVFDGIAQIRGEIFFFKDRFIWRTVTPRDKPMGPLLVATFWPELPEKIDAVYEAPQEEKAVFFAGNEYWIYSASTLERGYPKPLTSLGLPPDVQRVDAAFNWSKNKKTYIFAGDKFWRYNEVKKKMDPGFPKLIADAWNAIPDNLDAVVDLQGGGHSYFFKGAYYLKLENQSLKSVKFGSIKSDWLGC
The assay can be described thus: MMP2 inhibition experiment. The following applies: concentration required for 50% inhibition of enzyme activity; read-out: IC50 value MMP-2.

Another assay addresses T4, Human MMP3 (Homo sapiens, UniProt P08254).
T4 construct: purchased Calbiochem 444217
The assay can be described thus: MMP3 inhibition experiment. The note with it: concentration required for 50% inhibition of enzyme activity; read-out: IC50 value MMP-3. Put shortly: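 Recombinant human MMP3 (5 ng) mixed with fluorogenic peptide NFF-3 (20 μM stock solution) and incubated 5 hours at 37° C; cleavage followed by fluorescence of the quenched substrate.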

For another assay, the target named is T5, Human MMP8 (Homo sapiens, UniProt P22894).
T5 construct: purchased Calbiochem 444229
Briefly: MMP8 inhibition experiment. The following applies: concentration required for 50% inhibition of enzyme activity; read-out: IC50 value MMP-8. In a few lines:
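Human MMP8 activated with APMA for 1 h at 37° C, then incubated with fluorogenic peptide MOCAc-Pro-Leu-Gly-Leu-A2pr(Dnp)-Ala-Arg-NH2 (20 μM stock) for 5 hours at 37° C. Fluorescent substrate cleavage serves as read-out.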

A further assay concerns the target T6, Human MMP9 (Homo sapiens, UniProt P14780).
T6 construct: purchased Calbiochem 444231
Briefly: MMP9 inhibition experiment. The note with it: read-out: IC50 value MMP-9.

A further assay has as its target T7, Human MMP13 (Homo sapiens, UniProt P45452).
T7 construct: purchased Chemicon CC068
Briefly: MMP13 inhibition experiment. The note with it: concentration required for 50% inhibition of enzyme activity; read-out: IC50 value MMP-13.

The next assay concerns the target T8, Human MMP14 (Homo sapiens, UniProt P50281).
T8 construct: purchased Biogenesis or Calbiochem 5980-1461 or 475935
Briefly: MMP14 inhibition experiment. The note with it: concentration required for 50% inhibition of enzyme activity; read-out: IC50 value MMP-14. In a few lines:
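Fluorescence assay: substrate Dnp-Pro-Cha-Gly-Cys(Me)-His-Ala-Lys(Nma)-NH2 (20 μM before equal-volume mixing) incubated at 37° C for 5 hours with 4 ng human MMP14.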

For a further assay, the target named is T9, Human MMP17 (Homo sapiens, UniProt Q9ULZ9).
T9 construct: purchased Calbiochem 475940
T9 sequence (Q9ULZ9 126-300 limits assumed): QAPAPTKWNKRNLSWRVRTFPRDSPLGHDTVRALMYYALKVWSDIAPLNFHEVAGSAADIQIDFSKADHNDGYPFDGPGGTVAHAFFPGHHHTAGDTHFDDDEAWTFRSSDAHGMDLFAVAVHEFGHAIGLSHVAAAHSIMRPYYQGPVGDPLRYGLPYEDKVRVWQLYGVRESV
The assay can be described thus: MMP17 inhibition test. The note with it: concentration required for 50% inhibition of enzyme activity; read-out: IC50 value MMP-17.

T6 sequence (P14780 107-707 limits assumed): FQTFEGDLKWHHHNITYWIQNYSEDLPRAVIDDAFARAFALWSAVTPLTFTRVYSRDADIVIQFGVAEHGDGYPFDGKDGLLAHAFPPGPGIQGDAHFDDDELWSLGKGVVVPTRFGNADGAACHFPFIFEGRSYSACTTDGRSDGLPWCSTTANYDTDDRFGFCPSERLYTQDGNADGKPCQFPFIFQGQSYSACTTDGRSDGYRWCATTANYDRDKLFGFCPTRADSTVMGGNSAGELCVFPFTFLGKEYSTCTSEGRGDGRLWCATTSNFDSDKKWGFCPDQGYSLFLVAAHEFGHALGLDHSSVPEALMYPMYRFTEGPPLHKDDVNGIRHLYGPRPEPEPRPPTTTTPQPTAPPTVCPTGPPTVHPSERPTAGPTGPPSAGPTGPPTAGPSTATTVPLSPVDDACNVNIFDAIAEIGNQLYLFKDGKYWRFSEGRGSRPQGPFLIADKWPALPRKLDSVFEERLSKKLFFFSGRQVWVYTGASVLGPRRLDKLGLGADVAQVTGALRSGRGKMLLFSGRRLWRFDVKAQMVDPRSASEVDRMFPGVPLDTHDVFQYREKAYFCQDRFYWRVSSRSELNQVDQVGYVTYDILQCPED
T5 sequence (P22894 101-467): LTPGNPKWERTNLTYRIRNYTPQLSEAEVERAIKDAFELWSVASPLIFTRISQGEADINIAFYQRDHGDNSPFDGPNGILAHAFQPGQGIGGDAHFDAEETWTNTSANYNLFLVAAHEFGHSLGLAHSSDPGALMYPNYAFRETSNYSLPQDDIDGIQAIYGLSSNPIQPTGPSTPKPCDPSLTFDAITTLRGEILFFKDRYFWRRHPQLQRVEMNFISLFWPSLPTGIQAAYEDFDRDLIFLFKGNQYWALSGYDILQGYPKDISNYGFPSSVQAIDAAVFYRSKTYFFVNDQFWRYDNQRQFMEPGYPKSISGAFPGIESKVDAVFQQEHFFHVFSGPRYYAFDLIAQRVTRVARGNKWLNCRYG
T4 sequence (P08254 100-272 limits assumed): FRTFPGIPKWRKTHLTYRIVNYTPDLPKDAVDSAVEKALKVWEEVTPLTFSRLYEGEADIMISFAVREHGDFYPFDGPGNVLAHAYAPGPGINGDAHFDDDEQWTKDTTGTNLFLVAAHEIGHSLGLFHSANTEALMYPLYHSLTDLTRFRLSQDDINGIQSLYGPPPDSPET
T1 sequence (P78536 215-824): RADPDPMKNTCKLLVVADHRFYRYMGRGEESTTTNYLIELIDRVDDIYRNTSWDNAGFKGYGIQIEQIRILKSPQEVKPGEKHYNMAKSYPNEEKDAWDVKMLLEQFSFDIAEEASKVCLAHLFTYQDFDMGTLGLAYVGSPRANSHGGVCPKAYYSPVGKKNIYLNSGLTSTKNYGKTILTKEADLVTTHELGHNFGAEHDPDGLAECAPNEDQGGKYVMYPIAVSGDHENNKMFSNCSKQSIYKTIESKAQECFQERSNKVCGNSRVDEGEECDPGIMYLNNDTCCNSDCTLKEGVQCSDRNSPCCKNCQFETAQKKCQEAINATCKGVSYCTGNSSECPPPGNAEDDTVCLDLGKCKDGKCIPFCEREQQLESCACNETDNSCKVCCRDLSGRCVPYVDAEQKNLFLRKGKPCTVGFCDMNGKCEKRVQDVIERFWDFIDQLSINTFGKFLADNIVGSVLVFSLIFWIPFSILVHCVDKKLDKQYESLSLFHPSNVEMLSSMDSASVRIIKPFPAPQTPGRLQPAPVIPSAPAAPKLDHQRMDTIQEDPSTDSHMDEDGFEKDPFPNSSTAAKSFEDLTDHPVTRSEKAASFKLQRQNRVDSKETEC
Protocol for Human MMP13: Human MMP13 (Chemicon #CC068) in amount of 90 μL (200 ng) was activated by mixing with 10 μL of 10 mM APMA, followed by reaction for 1 hour at 37° C. This enzyme solution in amount of 0.6 μL was diluted to 90 μL with the assay buffer A, which was added to 90 μL of 20 μM fluorescent substrate (Dnp-Pro-Cha-Gly-Cys(Me)-His-Ala-Lys(Nma)-NH2) prepared in the assay buffer B, followed by reaction for 4 hours at 37° C.
Protocol for Human MMP2: This enzyme solution in amount of 10 μL was diluted to 90 μL with the assay buffer A, which was added to 90 μL of 20 μM fluorescent substrate (MOCAc((7-methoxycoumarin-4-yl)acetyl)-Pro-Leu-Gly-Leu-A2pr(Dnp)-Ala-Arg-NH2, Peptide Institute, Inc., #3163-v) prepared in the assay buffer B, followed by reaction for 5 hours at 37° C.
Protocol for Human MMP9: The methods of inhibition experiments carried out for various MMPs are described below.
This enzyme solution in amount of 1 μL was diluted to 90 μL with the assay buffer A, which was added to 90 μL of 20 μM fluorescent substrate (Dnp-Pro-Cha-Gly-Cys(Me)-His-Ala-Lys(Nma)-NH2) prepared in the assay buffer B, followed by reaction for 4 hours at 37° C.

Broadly, the IC50 is the concentration at which inhibition is half-maximal. In the case of `COCc1cc(COc2ccc(S(=O)(=O)CC(c3ccccc3C)N(O)C=O)cc2)cc(C)n1` (stereo not drawn) [Example I-117], the IC50 is 0.62 µM against TACE; above 100 µM on Human MMP1; 12 µM at Human MMP2; 20 µM at Human MMP3; 20 µM on Human MMP8; above 100 µM on Human MMP9. For the same compound, the IC50 at Human MMP13 was 28 µM; on Human MMP14, above 100 µM; on Human MMP17, 22 µM.

Regarding `Cc1cc(COc2ccc(S(=O)(=O)CC(C=C3CCN(C(=O)OC(C)(C)C)CC3C)N(O)C=O)cc2)c2ccccc2n1` (stereo not drawn) [Example I-61], the IC50 at TACE was 0.0033 µM; on Human MMP1, 80 µM; on Human MMP2, 5 µM; at Human MMP3 it was 1.5 µM; on Human MMP8, 24 µM; at Human MMP9 it was 62 µM. Further, the IC50 is 10 µM on Human MMP13, 54 µM at Human MMP14 and 1.8 µM on Human MMP17.

Regarding `Cc1cncc(C(CS(=O)(=O)c2ccc(OCc3cc(C)nc4c(F)cccc34)cc2)N(O)C=O)c1` (stereo not drawn) [Example I-150], the IC50 against TACE is 0.0025 µM; on Human MMP1, above 100 µM; at Human MMP2 it was 34 µM; on Human MMP3, 4 µM; on Human MMP8, 27 µM; on Human MMP9, above 100 µM. Also, the IC50 on Human MMP13 stood at 18 µM; at Human MMP14 it was 58 µM; at Human MMP17 it was 2.4 µM.

Take `Cc1ccccc1C(CS(=O)(=O)c1ccc(OCc2ccc3ccccc3n2)cc1)N(O)C=O` (stereo not drawn) [Example I-82]: the IC50 is 3.5 µM against TACE; 92 µM at Human MMP1; 4.2 µM at Human MMP2; 50 µM at Human MMP3; above 100 µM at Human MMP8; 32 µM on Human MMP9. For the same compound, the IC50 amounted to 26 µM at Human MMP13, 38 µM at Human MMP14 and 30 µM at Human MMP17.

With `Cc1cc(COc2ccc(S(=O)(=O)CC(C3CCOCC3)N(O)C=O)cc2)c2ccccc2n1` (stereo not drawn) [Example I-49], the IC50 against TACE is 0.013 µM; on Human MMP1, above 100 µM; on Human MMP2, 24 µM; on Human MMP3 it was 2 µM; on Human MMP8, 9 µM; at Human MMP9, above 100 µM. Besides, the IC50 is 30 µM at Human MMP13, 90 µM at Human MMP14 and 0.61 µM on Human MMP17.

As to `Cc1ccc(C(CS(=O)(=O)c2ccc(OCc3cc(C)nc4ccccc34)cc2)N(O)C=O)cn1` (stereo not drawn) [Example I-32], the IC50 on TACE is 0.0025 µM; at Human MMP1 it was above 100 µM; on Human MMP2, 18 µM; at Human MMP3, 2.7 µM; at Human MMP8, 22 µM; at Human MMP9 it was 44 µM. For the same compound, the IC50 at Human MMP13 turned out to be 9 µM; at Human MMP14, 53 µM; on Human MMP17 it was 1.5 µM.

In the case of `COCc1cc(COc2ccc(S(=O)(=O)CC(C=C3CCC(=NO)CC3)N(O)C=O)cc2)cc(C)n1` (stereo not drawn) [Example I-120], the IC50 against TACE was 0.11 µM; at Human MMP1, above 100 µM; at Human MMP2 it was 22 µM; on Human MMP3 it was 68 µM; on Human MMP8, 27 µM; at Human MMP9, above 100 µM. In addition, the figures for the IC50 at Human MMP13, at Human MMP14 and at Human MMP17 were 62 µM, above 100 µM and 33 µM, respectively.

Regarding `Cc1cc(COc2ccc(S(=O)(=O)CC(C=C3CCOCC3)N(O)C=O)cc2)cc(C)n1` (stereo not drawn) [Example I-115], the IC50 was 0.14 µM on TACE; above 100 µM on Human MMP1; 4 µM on Human MMP2; 40 µM at Human MMP3; 6 µM on Human MMP8; above 100 µM on Human MMP9. The IC50 at Human MMP13 was 8 µM; on Human MMP14, above 100 µM; on Human MMP17, 42 µM.

Consider `Cc1ccc2nc(C)cc(COc3ccc(S(=O)(=O)CC(C=C4CCC(=NO)CC4)N(O)C=O)cc3)c2c1` (stereo not drawn) [Example I-75], for which the IC50 against TACE was determined as 0.0041 µM; on Human MMP1 it was 65 µM; on Human MMP2, 50 µM; at Human MMP3 it was 5.5 µM; on Human MMP8, 90 µM; at Human MMP9, 35 µM. Besides, the IC50 at Human MMP13 was determined as 22 µM; on Human MMP14, 40 µM; at Human MMP17, 11 µM.
